Assay results reported in PubChem BioAssay (NCI).
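Cells were grown in 96-well plates and exposed to each compound for 48 hours at five concentrations; endpoints were interpolated linearly between bracketing concentrations, or set to the highest concentration if not reached. At the TGI there is no net growth.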

Key:
Experiment in all cases: DTP human tumour cell line panel, 48 h
[1] = test system: NCI-H226 lung
[2] = test system: IGROV1 ovarian
[3] = test system: TK-10 renal
[4] = test system: SK-OV-3 ovarian
[5] = test system: U251 CNS
[6] = test system: UACC-257 melanoma
[7] = test system: CAKI-1 renal
[8] = test system: PC-3 prostate
[9] = test system: NCI/ADR-RES ovarian
[10] = test system: MDA-N

Question: For `C#Cc1ccccc1C(=O)OC`, which TGI [1] is on record?
Answer: > 100 µM

Question: And the TGI [2]?
Answer: > 100 µM

Question: And the TGI [3]?
Answer: > 100 µM

Question: What about the TGI [4] of the same molecule?
Answer: > 100 µM

Question: What about the TGI [5] of the same molecule?
Answer: > 100 µM

Question: And the TGI [6]?
Answer: > 100 µM

Question: What does the source list for `CC1Oc2c(c(O)cc3oc(=O)cc(-c4ccccc4)c23)C(=O)C1C` (configuration not stated)?
Answer: TGI [1]: > 100 µM; TGI [2]: > 100 µM; TGI [3]: > 100 µM; TGI [4]: > 100 µM; TGI [5]: > 100 µM; TGI [7]: > 100 µM

Question: What does the source list for `C[C@@H](CC(O)C(O)C(C)(C)O)C1CCC23CC12CCC1[C@@]2(C)CCC(=O)C(C)(C)C2CC(OC2OC(CO)C(O)C(O)C2O)[C@]13C` (some centres not stated)?
Answer: TGI [1]: > 10 µM; TGI [2]: > 10 µM; TGI [3]: > 10 µM; TGI [4]: > 10 µM; TGI [8]: > 10 µM; TGI [9]: > 10 µM; TGI [5]: > 10 µM; TGI [7]: > 10 µM; TGI [10]: > 10 µM

Question: Which results are given for `Cn1c(=O)c2[nH]cnc2n(C)c1=O`?
Answer: TGI [1]: > 100 µM; TGI [2]: > 100 µM; TGI [3]: > 100 µM; TGI [8]: > 100 µM; TGI [9]: > 100 µM; TGI [6]: > 100 µM; TGI [7]: > 100 µM; TGI [10]: > 100 µM

Question: How did the TGI [1] turn out when `O=C(O)C1(Cc2ccc3c(c2)CCC3)Cc2cc3c(cc2C1)CCC3` was run?
Answer: > 100 µM

Question: What about the TGI [2] of the same molecule?
Answer: > 100 µM

Question: What about the TGI [3] of the same molecule?
Answer: > 100 µM

Question: What about the TGI [4] of the same molecule?
Answer: > 100 µM

Question: And the TGI [8]?
Answer: > 100 µM

Question: And the TGI [5]?
Answer: > 100 µM

Question: What about the TGI [10] of the same molecule?
Answer: > 100 µM

Question: With `CC(=O)Nc1oc(C)nc1C#N` as the molecule, how does the TGI [2] read?
Answer: > 100 µM

Question: What about the TGI [3] of the same molecule?
Answer: > 100 µM

Question: What about the TGI [4] of the same molecule?
Answer: > 100 µM

Question: And the TGI [8]?
Answer: > 100 µM

Question: What about the TGI [5] of the same molecule?
Answer: > 100 µM

Question: What about the TGI [6] of the same molecule?
Answer: > 100 µM

Question: And the TGI [7]?
Answer: > 100 µM

Question: What about the TGI [10] of the same molecule?
Answer: > 100 µM

Question: What does the source list for `CC[N+]1(C)CCC(O)(/C=C/c2ccc(Cl)c(Cl)c2)C(C(=O)/C=C/c2ccc(Cl)c(Cl)c2)C1` (configuration not stated)?
Answer: TGI [1]: 14.6 µM; TGI [2]: 7.8 µM; TGI [3]: 6.58 µM; TGI [4]: 16.5 µM; TGI [8]: 5.19 µM; TGI [9]: 6.63 µM; TGI [5]: 3.71 µM; TGI [6]: 5.96 µM; TGI [7]: 12.7 µM

Question: How did the TGI [1] turn out when `O=C(c1ccccc1)c1ccc2c(c1)N=C(c1ccc(Cl)c(Cl)c1)CC(c1ccc3ccccc3c1)N2` (configuration not stated) was run?
Answer: > 100 µM

Question: And the TGI [2]?
Answer: > 100 µM

Question: What about the TGI [3] of the same molecule?
Answer: > 100 µM

Question: And the TGI [4]?
Answer: > 100 µM

Question: What about the TGI [5] of the same molecule?
Answer: > 100 µM

Question: And the TGI [6]?
Answer: > 100 µM

Question: What about the TGI [7] of the same molecule?
Answer: > 100 µM

Question: What does the source list for `CN(c1ccccc1)c1c(-c2ccccc2)c(=O)oc2c1ccc1occc12`?
Answer: TGI [1]: 2.85 µM; TGI [2]: > 100 µM; TGI [4]: > 100 µM; TGI [9]: > 100 µM; TGI [5]: > 100 µM; TGI [6]: > 100 µM; TGI [7]: > 100 µM

Question: For `COC(=O)[C@]12CCC(=O)N1[C@H](C(=O)O)Cc1c2[nH]c2ccccc12`, which TGI [2] is on record?
Answer: > 100 µM

Question: What about the TGI [3] of the same molecule?
Answer: > 100 µM

Question: And the TGI [4]?
Answer: > 100 µM

Question: What about the TGI [8] of the same molecule?
Answer: > 100 µM

Question: And the TGI [9]?
Answer: > 100 µM

Question: What about the TGI [5] of the same molecule?
Answer: > 100 µM

Question: What about the TGI [6] of the same molecule?
Answer: > 100 µM

Question: And the TGI [7]?
Answer: > 100 µM

Question: What about the TGI [10] of the same molecule?
Answer: > 100 µM

Question: What does the source list for `Cc1ccc(N=Nc2cc(=O)[nH]c(=O)[nH]2)cc1C`?
Answer: TGI [1]: 41.8 µM; TGI [2]: 26.9 µM; TGI [3]: 34.3 µM; TGI [8]: 11.7 µM; TGI [9]: > 100 µM; TGI [5]: 29.1 µM; TGI [6]: 28.7 µM; TGI [10]: 24.7 µM

Question: Which TGI [1] does the source give for `CC(C)=CCC/C(C)=C/CCC1(C)C2COC(=O)C21` (configuration not stated) here?
Answer: > 100 µM

Question: What about the TGI [2] of the same molecule?
Answer: > 100 µM

Question: What about the TGI [3] of the same molecule?
Answer: > 100 µM

Question: What about the TGI [4] of the same molecule?
Answer: > 100 µM

Question: And the TGI [8]?
Answer: > 100 µM

Question: What about the TGI [5] of the same molecule?
Answer: > 100 µM

Question: What about the TGI [6] of the same molecule?
Answer: > 100 µM

Question: And the TGI [7]?
Answer: > 100 µM

Question: What about the TGI [10] of the same molecule?
Answer: > 100 µM

Question: `COc1cc(/C=C/C=C2\CC(C)C/C(=C\C=C\c3ccc(O)c(OC)c3)C2=O)ccc1O` (configuration not stated) was tested. Which TGI [1] did it give?
Answer: 28 µM

Question: What about the TGI [2] of the same molecule?
Answer: 20.8 µM

Question: And the TGI [3]?
Answer: 16 µM

Question: And the TGI [4]?
Answer: 18.2 µM

Question: And the TGI [8]?
Answer: 48.8 µM

Question: And the TGI [9]?
Answer: 77.4 µM

Question: And the TGI [5]?
Answer: 33 µM

Question: What about the TGI [6] of the same molecule?
Answer: 89.7 µM

Question: What about the TGI [7] of the same molecule?
Answer: 33.2 µM
